According to paper PMC7385938 (Cell Stress & Chaperones, 2020):

Biological target: HSPA5-FL (Homo sapiens, UniProt P11021)
Assay: ITC, liposomes titrated into protein
Assay type: binding

Chain of HSPA5-FL (P11021 25-654): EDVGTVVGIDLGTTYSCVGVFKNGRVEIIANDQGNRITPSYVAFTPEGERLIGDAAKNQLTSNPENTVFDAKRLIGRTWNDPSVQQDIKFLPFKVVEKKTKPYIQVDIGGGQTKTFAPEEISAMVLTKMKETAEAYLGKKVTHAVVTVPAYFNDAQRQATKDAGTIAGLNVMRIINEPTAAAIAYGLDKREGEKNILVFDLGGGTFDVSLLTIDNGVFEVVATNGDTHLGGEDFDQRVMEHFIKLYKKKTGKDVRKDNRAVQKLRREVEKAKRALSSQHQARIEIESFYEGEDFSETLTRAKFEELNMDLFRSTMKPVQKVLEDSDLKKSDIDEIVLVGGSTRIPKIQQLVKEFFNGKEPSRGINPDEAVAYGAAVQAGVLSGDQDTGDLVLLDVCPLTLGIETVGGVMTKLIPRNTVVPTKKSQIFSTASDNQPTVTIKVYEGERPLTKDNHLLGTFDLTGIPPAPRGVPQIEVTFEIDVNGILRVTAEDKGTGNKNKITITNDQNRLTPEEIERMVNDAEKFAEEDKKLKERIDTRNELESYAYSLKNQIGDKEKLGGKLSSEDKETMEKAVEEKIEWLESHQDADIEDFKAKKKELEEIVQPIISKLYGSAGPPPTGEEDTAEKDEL

| Compound | Kd [nM] |
| --- | --- |
| CCCCCCCCCCCCCC(=O)OC[C@H](COP(=O)(O)OCC(O)COP(=O)(O)OC[C@@H](COC(=O)CCCCCCCCCCCCC)OC(=O)CCCCCCCCCCCCC)OC(=O)CCCCCCCCCCCCC (some centres unmarked) [CL, 1′,3′-bis[1,2-dimyristoyl-sn-glycero-3-phospho]-glycerol] | 1600 ± 500 |
| CCCCCCCC/C=C\CCCCCCCC(=O)O[C@H](COC(=O)CCCCCCCCCCCCCCC)COP(=O)(O)OC[C@H](N)C(=O)O [POPS] | 3500 ± 800 |
